Results reported in ChEMBL document CHEMBL3046163, “Cross-resistance relationships between neonicotinoids and pymetrozine in Bemisia tabaci (Hemiptera: Aleyrodidae)” (2010).
Values after ≈ are worked out from the molar mass of the structure shown.

Experiments:
Format in all cases: functional
[1] = test system: Bemisia tabaci; assay: Insecticidal activity against Bemisia tabaci biotype-B B4 (sweet potato whitefly) after 96 hr by leaf-dip bioassay; settings: biotype-B B4, 96 h
[2] = test system: Bemisia tabaci; assay: Resistance ratio of LC50 for Bemisia tabaci biotype-B B2 (sweet potato whitefly) to LC50 for Bemisia tabaci LABS
[3] = test system: Bemisia tabaci; assay: Insecticidal activity against Bemisia tabaci biotype-Q Q3 (sweet potato whitefly) after 96 hr by leaf-dip bioassay; settings: biotype-Q Q3, 96 h
[4] = test system: Bemisia tabaci; assay: Insecticidal activity against pymetrozine-selected Bemisia tabaci B1B3 (sweet potato whitefly) after 96 hr by leaf-dip bioassay; settings: B1B3, 96 h
[5] = test system: Bemisia tabaci; assay: Selectivity ratio of LC50 for pymetrozine-selected Bemisia tabaci B2 (sweet potato whitefly) to LC50 for Bemisia tabaci B2
[6] = test system: Bemisia tabaci; assay: Insecticidal activity against pymetrozine-selected Bemisia tabaci B2 (sweet potato whitefly) after 96 hr by leaf-dip bioassay; settings: B2, 96 h
[7] = test system: Bemisia tabaci; assay: Selectivity ratio of LC50 for pymetrozine-selected Bemisia tabaci B1B3 (sweet potato whitefly) to LC50 for Bemisia tabaci B1B3
[8] = test system: Bemisia tabaci; assay: Insecticidal activity against Bemisia tabaci biotype-B B3 (sweet potato whitefly) after 96 hr by leaf-dip bioassay; settings: biotype-B B3, 96 h
[9] = test system: Bemisia tabaci; assay: Resistance ratio of LC50 for Bemisia tabaci biotype-Q Q1 (sweet potato whitefly) to LC50 for Bemisia tabaci LABS
[10] = test system: Bemisia tabaci; assay: Insecticidal activity against Bemisia tabaci biotype-B B2 (sweet potato whitefly) after 96 hr by leaf-dip bioassay; settings: biotype-B B2, 96 h
[11] = test system: Bemisia tabaci; assay: Resistance ratio of LC50 for Bemisia tabaci biotype-B B1 (sweet potato whitefly) to LC50 for Bemisia tabaci LABS
[12] = test system: Bemisia tabaci; assay: Insecticidal activity against Bemisia tabaci LABS (sweet potato whitefly) after 96 hr by leaf-dip bioassay
[13] = test system: Bemisia tabaci; assay: Resistance ratio of LC50 for Bemisia tabaci biotype-Q Q3 (sweet potato whitefly) to LC50 for Bemisia tabaci LABS
[14] = test system: Bemisia tabaci; assay: Insecticidal activity against thiamethoxam-selected Bemisia tabaci B1B3 (sweet potato whitefly) after 96 hr by leaf-dip bioassay; settings: B1B3, 96 h
[15] = test system: Bemisia tabaci; assay: Insecticidal activity against Bemisia tabaci biotype-B B1 (sweet potato whitefly) after 96 hr by leaf-dip bioassay; settings: biotype-B B1, 96 h
[16] = test system: Bemisia tabaci; assay: Insecticidal activity against Bemisia tabaci B1B3 (sweet potato whitefly) after 96 hr by leaf-dip bioassay; settings: B1B3, 96 h
[17] = test system: Bemisia tabaci; assay: Resistance ratio of LC50 for Bemisia tabaci biotype-B B3 (sweet potato whitefly) to LC50 for Bemisia tabaci LABS
[18] = test system: Bemisia tabaci; assay: Selectivity ratio of LC50 for thiamethoxam-selected Bemisia tabaci B1B3 (sweet potato whitefly) to LC50 for Bemisia tabaci B1B3
[19] = test system: Bemisia tabaci; assay: Insecticidal activity against Bemisia tabaci biotype-Q Q1 (sweet potato whitefly) after 96 hr by leaf-dip bioassay; settings: biotype-Q Q1, 96 h
[20] = test system: Bemisia tabaci; assay: Resistance ratio of LC50 for Bemisia tabaci biotype-Q Q2 (sweet potato whitefly) to LC50 for Bemisia tabaci LABS
[21] = test system: Bemisia tabaci; assay: Insecticidal activity against Bemisia tabaci biotype-Q Q2 (sweet potato whitefly) after 96 hr by leaf-dip bioassay; settings: biotype-Q Q2, 96 h
[22] = test system: Bemisia tabaci; assay: Resistance ratio of LC50 for Bemisia tabaci biotype-B B4 (sweet potato whitefly) to LC50 for Bemisia tabaci LABS
[23] = test system: Bemisia tabaci; assay: Insecticidal activity against pymetrozine-selected Bemisia tabaci B2 (sweet potato whitefly) after 48 hr by leaf-dip bioassay; settings: B2, 48 h
[24] = test system: Bemisia tabaci; assay: Insecticidal activity against Bemisia tabaci biotype-B B3 (sweet potato whitefly) after 48 hr by leaf-dip bioassay; settings: biotype-B B3, 48 h
[25] = test system: Bemisia tabaci; assay: Insecticidal activity against Bemisia tabaci B1B3 (sweet potato whitefly) after 48 hr by leaf-dip bioassay; settings: B1B3, 48 h
[26] = test system: Bemisia tabaci; assay: Insecticidal activity against Bemisia tabaci biotype-B B1 (sweet potato whitefly) after 48 hr by leaf-dip bioassay; settings: biotype-B B1, 48 h
[27] = test system: Bemisia tabaci; assay: Insecticidal activity against Bemisia tabaci biotype-Q Q3 (sweet potato whitefly) after 48 hr by leaf-dip bioassay; settings: biotype-Q Q3, 48 h
[28] = test system: Bemisia tabaci; assay: Insecticidal activity against Bemisia tabaci LABS (sweet potato whitefly) after 48 hr by leaf-dip bioassay
[29] = test system: Bemisia tabaci; assay: Insecticidal activity against Bemisia tabaci biotype-B B2 (sweet potato whitefly) after 48 hr by leaf-dip bioassay; settings: biotype-B B2, 48 h
[30] = test system: Bemisia tabaci; assay: Insecticidal activity against Bemisia tabaci biotype-Q Q1 (sweet potato whitefly) after 48 hr by leaf-dip bioassay; settings: biotype-Q Q1, 48 h
[31] = test system: Bemisia tabaci; assay: Insecticidal activity against pymetrozine-selected Bemisia tabaci B1B3 (sweet potato whitefly) after 48 hr by leaf-dip bioassay; settings: B1B3, 48 h
[32] = test system: Bemisia tabaci; assay: Insecticidal activity against thiamethoxam-selected Bemisia tabaci B1B3 (sweet potato whitefly) after 48 hr by leaf-dip bioassay; settings: B1B3, 48 h
[33] = test system: Bemisia tabaci; assay: Insecticidal activity against Bemisia tabaci biotype-Q Q2 (sweet potato whitefly) after 48 hr by leaf-dip bioassay; settings: biotype-Q Q2, 48 h
[34] = test system: Bemisia tabaci; assay: Insecticidal activity against Bemisia tabaci biotype-B B4 (sweet potato whitefly) after 48 hr by leaf-dip bioassay; settings: biotype-B B4, 48 h

SMILES | RatioLC50 [2] | RatioLC50 [5] | RatioLC50 [7] | RatioLC50 [9] | RatioLC50 [11] | RatioLC50 [13] | RatioLC50 [17] | RatioLC50 [18] | RatioLC50 [20] | RatioLC50 [22] | LC50 [23] | LC50 [24] | LC50 [26] | LC50 [27] | LC50 [28] | LC50 [29] | LC50 [30] | LC50 [33] | LC50 [34] | also measured
CC1=NNC(=O)N(/N=C/c2cccnc2)C1 [PYMETROZINE] | 92 | 54 | 23 | 5.8 | 1.6 | 1900 | 1100 | 7.9 | 390 | 520 | – | – | – | – | – | – | – | – | – | LC50 [1]: 1200 µg/mL (≈ 5520 µM); LC50 [3]: 4600 µg/mL (≈ 21200 µM); LC50 [4]: 3200 µg/mL (≈ 14700 µM); LC50 [6]: 15000 µg/mL (≈ 69100 µM); LC50 [8]: 1200 µg/mL (≈ 5520 µM); LC50 [10]: 220 µg/mL (≈ 1010 µM); LC50 [12]: 2.4 µg/mL (≈ 11 µM); LC50 [14]: 1100 µg/mL (≈ 5060 µM); LC50 [15]: 3.9 µg/mL (≈ 18 µM); LC50 [16]: 140 µg/mL (≈ 644 µM); LC50 [19]: 14 µg/mL (≈ 64.4 µM); LC50 [21]: 930 µg/mL (≈ 4280 µM)
CN1COCN(Cc2cnc(Cl)s2)/C1=N\[N+](=O)[O-] [THIAMETHOXAM] | 2.9 | 0.29 | 4.5 | 3.7 | 6.3 | 490 | 150 | 7 | 240 | 73 | 8.6 µg/mL (≈ 29.5 µM) | 100 µg/mL (≈ 343 µM) | 4.5 µg/mL (≈ 15.4 µM) | 2000 µg/mL (≈ 6860 µM) | 4.1 µg/mL (≈ 14.1 µM) | 12 µg/mL (≈ 41.1 µM) | 15 µg/mL (≈ 51.4 µM) | 980 µg/mL (≈ 3360 µM) | 300 µg/mL (≈ 1030 µM) | LC50 [25]: 64 µg/mL (≈ 219 µM); LC50 [31]: 290 µg/mL (≈ 994 µM); LC50 [32]: 450 µg/mL (≈ 1540 µM)
O=[N+]([O-])/N=C1\NCCN1Cc1ccc(Cl)nc1 [IMIDACLOPRID] | 3.5 | 0.92 | – | 1.8 | 1.2 | 850 | 230 | – | 420 | 230 | 23 µg/mL (≈ 90 µM) | 1100 µg/mL (≈ 4300 µM) | 5.8 µg/mL (≈ 22.7 µM) | 4100 µg/mL (≈ 16000 µM) | 4.8 µg/mL (≈ 18.8 µM) | 17 µg/mL (≈ 66.5 µM) | 8.5 µg/mL (≈ 33.2 µM) | 2000 µg/mL (≈ 7820 µM) | 1100 µg/mL (≈ 4300 µM) | –
C/C(=N\C#N)N(C)Cc1ccc(Cl)nc1 [ACETAMIPRID] | 1.2 | – | – | 0.95 | 2.1 | 57 | 30 | – | 20 | 15 | – | 110 µg/mL (≈ 494 µM) | 7.6 µg/mL (≈ 34.1 µM) | 210 µg/mL (≈ 943 µM) | 3.7 µg/mL (≈ 16.6 µM) | 4.3 µg/mL (≈ 19.3 µM) | 3.5 µg/mL (≈ 15.7 µM) | 74 µg/mL (≈ 332 µM) | 54 µg/mL (≈ 243 µM) | –
